Laboratory results as given in patent publication US8765689B2, “Anti-ageing peptides modulating survivin and compositions including same” (ISP Investments Inc., priority 2010, dated 2014).
Ends that are not written are not given here.

Columns and labels:
[1] = test system: RA and TOTAL keratinocytes; assay: MITOSOX test (mitochondrial production of free radicals under H2O2 or UVB stress); assay type: cell-based, human; details: peptide at 1% and 3%, 48 hours, stress 5 mM H2O2 30 minutes or UVB 100 mJ/cm^2
From the text: Mitosox is a reactant marketed by Invitrogen (molecular probes M36008). It is used during UV and H2O2 oxidative stress. It uses microscopic imaging to measure the mitochondrial production of free radicals (ROS) in cells. More particularly, Mitosox is specific to the superoxide anion, which is the predominant form of ROS.
Mitosox is applied to living cells: it permeates the membrane and once inside the cell, diffuses rapidly and specifically within the mitochondria. Once in the mitochondria, Mitosox is oxidized by the superoxide anion into a compound which provides red fluorescence. This reactant is easily oxidized by the superoxide anion but not by other free radicals, nor by reactive species of nitrogen (NOS).
RA and TOTAL keratinocytes (where TOTAL denotes an entire cellular fraction) were treated three times per day with the peptide compound of SEQ ID NO: 3 at concentrations of 1% and 3%, for 48 hours.
In a second step, the cells were placed under stress, caused: • either by exposure to 5 mM H2O2 solution for 30 minutes; • or by UVB radiation at 100 mJ/cm^2.
After stress application, the cells were rinsed and then returned into a suitable medium for one hour at 37° C. in a culture incubator. […] The results were read using fluorescence microscopy.

[2] = test system: cellular fraction RA (enriched with epidermal adult stem cells); assay: Comets test on cellular fraction RA after UVB irradiation; assay type: cell-based, human; details: RA cells cultured 24 hours with peptide at 1%, then UVB 60 mJ/cm^2
Description: The comets test is a test that allows damage caused to DNA to be quantified at a cellular level.
To this end, in order to confirm the protective effect of a peptide compound according to the present invention, cells of the RA type were cultured for 24 hours with the peptide compound of sequence SEQ ID NO: 2 at a concentration of 1%, and then irradiated with
UVB radiation at 60 mJ/cm^2. […] The cells were then removed by trypsination from their carrier, and then centrifuged at 900 rpm for 5 minutes before being concentrated and counted.
A specific cell count (25,000 cells) was then incorporated into a 0.75% Low Melting agarose gel, and then deposited on a glass slide previously coated with 1% agarose. The slides were then immersed in a lysis solution for 1.5 hours at 4° C., and then in an alkaline solution for 20 minutes at 4° C. The cells were then lysed and the DNA denatured. The slides were immersed in an electrophoresis solution before applying an electric field (20 V-250 mA). The thus denatured DNA was subjected to migration within an agarose gel at 4° C. Applying a DNA fluorescent dye on the slides (2 μg/ml propidium iodide) allowed the DNA to be observed in the form of comets in those cases where it had been damaged.
Quantification software is used to determine the average Tail moment applied to each condition being tested. […]

[3] = test system: Keratin K19; assay: Keratin K19 immunolabeling in UV-irradiated hair follicles maintained in culture; assay type: cell-based; details: hair follicles treated with 1% peptide 24 hours before UV irradiation (UVA 5 J/cm, UVB 200 mJ/cm^2); image analysis
Description: The hair follicles were sampled from a biopsy using a scalpel and fine pliers, and then cultured in 24-well plates using William's E medium in the presence of antibiotics (0.2% Primocin), 10 μg/ml insulin, 10 ng/ml hydrocortisone and 2 mmol/L L-glutamine.
The follicles were either treated or not with the 1% peptide compound SEQ ID NO: 2 in Williams' medium and then incubated for 24 hours. UV irradiation was then applied (UVA: 5 J/cm, UVB 200 mJ/cm^2), and the follicles were then re-cultured for 24 hours. At the end of the experiment, the follicles were incorporated within OCT and frozen at −196° C. (liquid nitrogen). The follicles were then placed in a cryostat in order to prepare 6-μm sections at a temperature of −23° C. The slides containing the sections were placed in an acetone bath for 10 minutes (fixing) and then rinsed.
The fixed sections were rinsed once with PBS for 5 minutes, and then wrapped in Pappen. Each section was incubated with 5 μl 5%-BSA for 30 minutes. Then, 50 μl of primary anti-Cytokeratin K19 antibody (Progen, Mouse monoclonal) diluted to 1/50th were added and incubated for one hour with stirring in a humid chamber. After rinsing with PBS for 30 minutes, 50 μl of a fluorescence-labeled secondary antibody was added and left for one hour in the dark with stirring in a humid chamber. […]

[4] = test system: Survivin protein; assay: Survivin protein expression by Western Blotting on cultured cellular fractions RA and SA1; assay type: cell-based, human; details: 48 hours, compound diluted to 3% (from a 10^-4 M solution)
Description: To investigate the role of the CPC proteins in the maintenance and protection of epidermal adult stem cells under various types of stress, several fractions of primary cells of human epidermis were prepared. Fractioning was carried out based on the adhesion time of cells to collagen IV: less than 20 minutes corresponds to fast adhesion (fraction RA), less than 5 hours, to slow adhesion No 1 (fraction SA1), less than 16 hours, to slow adhesion No 2 (fraction SA2), and lastly, non-adhering keratinocytes (fractions NA). […]
An investigation of the modulator effect of the peptide SEQ ID NO: 2 was conducted by evaluating the expression of the Survivin protein by Western Blotting on the cultured cellular fractions RA and SA1. The Western Blot technique is a conventional semi-quantitative method for assessing the proportion of proteins in cells.
Fractions RA and SA1 were grown in boxes 100 mm in diameter at 37° C. in a humidified atmosphere containing 5% CO2 for 48 hours with or without the compound, diluted to 3% (from a 10^−4 M solution). […] The quantitative evaluation of the proteins in the cells is performed using the Chemiimager software (Alpha Innotech Corporation USA). The amount of proteins is expressed as a percentage of the light intensity compared with that of the control conditions, under which no treatment has been received.

Row | Substance | number of fluorescent cells (Mitosox, free radical production) [1] | Tail Moment decrease vs UVB control [2] [%] | fluorescent values of Keratin K19 [3] | expression of the Survivin protein ([4]; fraction RA (very rich in epidermal adult stem cells)) | expression of the Survivin protein ([4]; fraction SA1 (less rich in epidermal adult stem cells))
1 | DAREMNWDT [SEQ ID NO: 3] | extremely low | – | – | – | –
2 | Arg-Glu-Met-Asn-Trp-NH2 (REMNW-NH2) [SEQ ID NO: 2] | – | 44.7 | +102.7% | increased | increased
